Experimental data taken from patent publication US9512161B2, “Hydroxyl, keto, and glucuronide derivatives of 3-(4-(7H-pyrrolo[2,3-D]pyrimidin-4-yl)-1H-pyrazol-1-yl)-3-cyclopentylpropanenitrile” (Incyte Corporation, priority 2009, dated 2016).

test: Metabolite profiling of plasma and urine from human subjects after administration of Compound I (HPLC-MS); format: in vivo; settings: human subjects dosed with Compound I; LC-MS detection
Procedure: Metabolites 1-39 were isolated from human, rat or dog urine, plasma, or feces after administration of Compound I in connection with pharmacokinetic and toxicokinetic studies. The identity of the metabolites were determined after isolation of the metabolite using HPLC methods. Tandem MS/MS analysis and higher order MS^n experiments were conducted as required to elucidate structural information.
Plasma samples from all subjects were pooled by subject and/or by time point. The pooled plasma samples were prepared for HPLC-Radiometric analysis as follows: Aliquots of the pooled plasma samples were initially extracted with approximately two equivalent (W/V) volumes of 1% formic acid in HPLC-grade acetonitrile, followed by vigorous vortexing, and centrifugation to remove denatured plasma proteins. The supernatant was reserved and passed through a pre-conditioned Waters C-18 Solid phase extraction cartridge, and the filtrate retained. The SPE cartridge was retained. The remaining plasma pellet was then extracted three times with 1% formic acid in HPLC-grade acetonitrile/water (90/10), with centrifugation after each extraction. All supernatants were reserved. Each formic acid/acetonitrile/water extraction supernatant was used to elute the SPE cartridge. The SPE cartridge was then rinsed with 1% formic acid in methanol. All eluants were retained, combined, and evaporated under a stream of nitrogen at 30° C. The remainder of this extraction was reconstituted in approximately 0.6 ml of 0.1% formic acid in water, vortexed and centrifuged to remove particulate matter. The supernatant was then analyzed by HPLC-Flow Radiometry and HPLC-MS.
Aliquots of approximately equal amounts of urine from each of the subjects were pooled to represent appropriate time intervals post-dose. Prior to HPLC-Radiometric analysis, each pooled urine sample was centrifuged at 4,000 rpm for 10 min to remove particulate matter, then analyzed directly.
All samples were analyzed by either HPLC-Flow radiometry or HPLC-MS using analytical systems that were as identical as practicable. The HPLC-Flow Radiometry system consisted of an Agilent HP 1100 series Quaternary pump, Autosampler, and UV detector interfaced with a Raytest Ramona-90 flow scintillation detector with a 500 μL liquid scintillation cell. […] Mobile phase “A” consisted of 0.1% formic acid in HPLC-grade water, with mobile phase “B” consisting of HPLC-grade methanol/acetonitrile (1:1). Elution of analytes was achieved through use of a linear increasing gradient of mobile phase “B”. Two different gradient elution methods were employed at various times as needed. Chromatographic conditions for these two methods are outlined below in Tables 3 and 4. […]

Row | Matrix in which the metabolite was observed/found | Compound
1 | urine | N#CCC(C1CCCC1)n1cc(-c2[nH]c(=O)nc3c2CC(=O)N3)cn1 (stereo not shown) [Compound 31, 3-cyclopentyl-3-(4-(2,6-dioxo-3,5,6,7-tetrahydro-2H-pyrrolo[2,3-d]pyrimidin-4-yl)-1H-pyrazol-1-yl)propanenitrile]
2 | plasma and urine | N#CCC(C1CCCC1)n1cc(-c2nc(O)nc3c2C(=O)CN3)cn1 (stereo not shown) [Compound 32, 3-cyclopentyl-3-(4-(2-hydroxy-5-oxo-6,7-dihydro-5H-pyrrolo[2,3-d]pyrimidin-4-yl)-1H-pyrazol-1-yl)propanenitrile]
3 | plasma and urine | N#CCC(C1CCCC1)n1cc(-c2ncnc3c2C(O)C(O)N3)cn1 (stereo not shown) [Compound 40, 3-cyclopentyl-3-(4-(5,6-dihydroxy-6,7-dihydro-5H-pyrrolo[2,3-d]pyrimidin-4-yl)-1H-pyrazol-1-yl)propanenitrile]
4 | urine | N#CCC(C1CCCC1)n1cc(-c2ncnc3c2ccn3C2OC(C(=O)O)C(O)C(O)C2O)cn1 (stereo not shown) [Compound 41, 6-(4-(1-(2-cyano-1-cyclopentylethyl)-1H-pyrazol-4-yl)-7H-pyrrolo[2,3-d]pyrimidin-7-yl)-3,4,5-trihydroxytetrahydro-2H-pyran-2-carboxylic acid]
